In patent US20120270237A9, “METHODS FOR THE IDENTIFICATION OF KINASE INTERACTING MOLECULES AND FOR THE PURIFICATION OF KINASE PROTEINS” (Cellzone AG, priority 2009, published 2012):

Legend:
Experiment in all cases: Kinobeads competition binding with immobilized CZC25342, mixed HeLa placenta lysates (Example 5, Table 7)
[1] = target: T1, kinases from mixed HeLa placenta lysates (Homo sapiens, UniProt P49841); settings: kinase GSK3B; 10 μM free compound; HeLa Placenta lysate mix
T1 construct: capturing and identification of kinases from mixed HeLa placenta lysates; endogenous in cells; host or cells: mixed lysate of HeLa cells and placenta tissue
Experimental: (§1) To one aliquot of cell lysate 10 μM of the free compound (FIG. 2, CZC25342) was added and allowed to bind to proteins in the lysate. Then the affinity matrix with the immobilized compound was added to capture proteins that were not interacting with the previously added free compound. Beads were separated from the lysate and bead bound proteins were eluted in SDS sample buffer and subsequently separated by SDS-Polyacrylamide gel electrophoresis (FIG. 11). Suitable gel bands were cut out and subjected to in-gel proteolytic digestion with trypsin. The second lysate aliquot was processed identically, however no free compound was added (DMSO solvent control). Peptides originating from samples 1 and 2 were labeled with iTRAQ reagents (iTRAQ 114 and iTRAQ 117) and the combined samples were analyzed with a nano-flow liquid chromatography system coupled online to a tandem mass spectrometer (LC-MS/MS) experiment followed by iTRAQ reporter ion quantification in the MS/MS spectra as described in Example 2. The identified kinases are shown in Table 7 including the percent competition values for the sample to which 10 μM free compound had been added. In total of 83 different kinases were identified and competed by different degrees.

[2] = target: T2, kinases from mixed HeLa placenta lysates (Homo sapiens, UniProt P78356); settings: kinase PIP5K2B; 10 μM free compound; HeLa Placenta lysate mix
T2 construct: capturing and identification of kinases from mixed HeLa placenta lysates; endogenous in cells; host or cells: mixed lysate of HeLa cells and placenta tissue
Experimental: as §1

[3] = target: T3, kinases from mixed HeLa placenta lysates (Homo sapiens, UniProt P51812); settings: kinase RSK2; 10 μM free compound; HeLa Placenta lysate mix
T3 construct: capturing and identification of kinases from mixed HeLa placenta lysates; endogenous in cells; host or cells: mixed lysate of HeLa cells and placenta tissue
Experimental: as §1

[4] = target: T4, kinases from mixed HeLa placenta lysates (Homo sapiens, UniProt P49840); settings: kinase GSK3A; 10 μM free compound; HeLa Placenta lysate mix
T4 construct: capturing and identification of kinases from mixed HeLa placenta lysates; endogenous in cells; host or cells: mixed lysate of HeLa cells and placenta tissue
Experimental: as §1

[5] = target: T5, kinases from mixed HeLa placenta lysates (Homo sapiens, UniProt P53350); settings: kinase PLK1; 10 μM free compound; HeLa Placenta lysate mix
T5 construct: capturing and identification of kinases from mixed HeLa placenta lysates; endogenous in cells; host or cells: mixed lysate of HeLa cells and placenta tissue
Experimental: as §1

[6] = target: T6, kinases from mixed HeLa placenta lysates (Homo sapiens, UniProt O14965); settings: kinase AurA; 10 μM free compound; HeLa Placenta lysate mix
T6 construct: capturing and identification of kinases from mixed HeLa placenta lysates; endogenous in cells; host or cells: mixed lysate of HeLa cells and placenta tissue
Experimental: as §1

[7] = target: T7, kinases from mixed HeLa placenta lysates (Homo sapiens, UniProt Q14289); settings: kinase PYK2; 10 μM free compound; HeLa Placenta lysate mix
T7 construct: capturing and identification of kinases from mixed HeLa placenta lysates; endogenous in cells; host or cells: mixed lysate of HeLa cells and placenta tissue
Experimental: as §1

[8] = target: T8, kinases from mixed HeLa placenta lysates (Homo sapiens, UniProt P78527); settings: kinase DNAPK; 10 μM free compound; HeLa Placenta lysate mix
T8 construct: capturing and identification of kinases from mixed HeLa placenta lysates; endogenous in cells; host or cells: mixed lysate of HeLa cells and placenta tissue
Experimental: as §1

[9] = target: T9, kinases from mixed HeLa placenta lysates (Homo sapiens, UniProt P15735); settings: kinase PHKg2; 10 μM free compound; HeLa Placenta lysate mix
T9 construct: capturing and identification of kinases from mixed HeLa placenta lysates; endogenous in cells; host or cells: mixed lysate of HeLa cells and placenta tissue
Experimental: as §1

[10] = target: T10, kinases from mixed HeLa placenta lysates (Homo sapiens, UniProt P29597); settings: kinase TYK2; 10 μM free compound; HeLa Placenta lysate mix
T10 construct: capturing and identification of kinases from mixed HeLa placenta lysates; endogenous in cells; host or cells: mixed lysate of HeLa cells and placenta tissue
Experimental: as §1

[11] = target: T11, kinases from mixed HeLa placenta lysates (Homo sapiens, UniProt Q8TD19); settings: kinase NEK9; 10 μM free compound; HeLa Placenta lysate mix
T11 construct: capturing and identification of kinases from mixed HeLa placenta lysates; endogenous in cells; host or cells: mixed lysate of HeLa cells and placenta tissue
Experimental: as §1

[12] = target: T12, kinases from mixed HeLa placenta lysates (Homo sapiens, UniProt P06241); settings: kinase FYN; 10 μM free compound; HeLa Placenta lysate mix
T12 construct: capturing and identification of kinases from mixed HeLa placenta lysates; endogenous in cells; host or cells: mixed lysate of HeLa cells and placenta tissue
Experimental: as §1

[13] = target: T13, kinases from mixed HeLa placenta lysates (Homo sapiens, UniProt Q96RR4); settings: kinase CaMKK2; 10 μM free compound; HeLa Placenta lysate mix
T13 construct: capturing and identification of kinases from mixed HeLa placenta lysates; endogenous in cells; host or cells: mixed lysate of HeLa cells and placenta tissue
Experimental: as §1

[14] = target: T14, kinases from mixed HeLa placenta lysates (Homo sapiens, UniProt Q13470); settings: kinase TNK1; 10 μM free compound; HeLa Placenta lysate mix
T14 construct: capturing and identification of kinases from mixed HeLa placenta lysates; endogenous in cells; host or cells: mixed lysate of HeLa cells and placenta tissue
Experimental: as §1

[15] = target: T15, kinases from mixed HeLa placenta lysates (Homo sapiens, UniProt Q2M2I8); settings: kinase AAK1; 10 μM free compound; HeLa Placenta lysate mix
T15 construct: capturing and identification of kinases from mixed HeLa placenta lysates; endogenous in cells; host or cells: mixed lysate of HeLa cells and placenta tissue
Experimental: as §1

[16] = target: T16, kinases from mixed HeLa placenta lysates (Homo sapiens, UniProt P07948); settings: kinase LYN; 10 μM free compound; HeLa Placenta lysate mix
T16 construct: capturing and identification of kinases from mixed HeLa placenta lysates; endogenous in cells; host or cells: mixed lysate of HeLa cells and placenta tissue
Experimental: as §1

[17] = target: T17, kinases from mixed HeLa placenta lysates (Homo sapiens, UniProt P45983); settings: kinase JNK1; 10 μM free compound; HeLa Placenta lysate mix
T17 construct: capturing and identification of kinases from mixed HeLa placenta lysates; endogenous in cells; host or cells: mixed lysate of HeLa cells and placenta tissue
Experimental: as §1

[18] = target: T18, kinases from mixed HeLa placenta lysates (Homo sapiens, UniProt P50750); settings: kinase CDK9; 10 μM free compound; HeLa Placenta lysate mix
T18 construct: capturing and identification of kinases from mixed HeLa placenta lysates; endogenous in cells; host or cells: mixed lysate of HeLa cells and placenta tissue
Experimental: as §1

[19] = target: T19, kinases from mixed HeLa placenta lysates (Homo sapiens, UniProt Q02763); settings: kinase TIE2; 10 μM free compound; HeLa Placenta lysate mix
T19 construct: capturing and identification of kinases from mixed HeLa placenta lysates; endogenous in cells; host or cells: mixed lysate of HeLa cells and placenta tissue
Experimental: as §1

[20] = target: T20, kinases from mixed HeLa placenta lysates (Homo sapiens, UniProt Q96GD4); settings: kinase AurB; 10 μM free compound; HeLa Placenta lysate mix
T20 construct: capturing and identification of kinases from mixed HeLa placenta lysates; endogenous in cells; host or cells: mixed lysate of HeLa cells and placenta tissue
Experimental: as §1

[21] = target: T21, kinases from mixed HeLa placenta lysates (Homo sapiens, UniProt Q6PHR2); settings: kinase ULK3; 10 μM free compound; HeLa Placenta lysate mix
T21 construct: capturing and identification of kinases from mixed HeLa placenta lysates; endogenous in cells; host or cells: mixed lysate of HeLa cells and placenta tissue
Experimental: as §1

[22] = target: T22, kinases from mixed HeLa placenta lysates (Homo sapiens, UniProt P17252); settings: kinase PKCa; 10 μM free compound; HeLa Placenta lysate mix
T22 construct: capturing and identification of kinases from mixed HeLa placenta lysates; endogenous in cells; host or cells: mixed lysate of HeLa cells and placenta tissue
Experimental: as §1

[23] = target: T23, kinases from mixed HeLa placenta lysates (Homo sapiens, UniProt P51956); settings: kinase NEK3; 10 μM free compound; HeLa Placenta lysate mix
T23 construct: capturing and identification of kinases from mixed HeLa placenta lysates; endogenous in cells; host or cells: mixed lysate of HeLa cells and placenta tissue
Experimental: as §1

[24] = target: T24, kinases from mixed HeLa placenta lysates (Homo sapiens, UniProt P07947); settings: kinase YES; 10 μM free compound; HeLa Placenta lysate mix
T24 construct: capturing and identification of kinases from mixed HeLa placenta lysates; endogenous in cells; host or cells: mixed lysate of HeLa cells and placenta tissue
Experimental: as §1

T24 sequence (P07947 whole entry): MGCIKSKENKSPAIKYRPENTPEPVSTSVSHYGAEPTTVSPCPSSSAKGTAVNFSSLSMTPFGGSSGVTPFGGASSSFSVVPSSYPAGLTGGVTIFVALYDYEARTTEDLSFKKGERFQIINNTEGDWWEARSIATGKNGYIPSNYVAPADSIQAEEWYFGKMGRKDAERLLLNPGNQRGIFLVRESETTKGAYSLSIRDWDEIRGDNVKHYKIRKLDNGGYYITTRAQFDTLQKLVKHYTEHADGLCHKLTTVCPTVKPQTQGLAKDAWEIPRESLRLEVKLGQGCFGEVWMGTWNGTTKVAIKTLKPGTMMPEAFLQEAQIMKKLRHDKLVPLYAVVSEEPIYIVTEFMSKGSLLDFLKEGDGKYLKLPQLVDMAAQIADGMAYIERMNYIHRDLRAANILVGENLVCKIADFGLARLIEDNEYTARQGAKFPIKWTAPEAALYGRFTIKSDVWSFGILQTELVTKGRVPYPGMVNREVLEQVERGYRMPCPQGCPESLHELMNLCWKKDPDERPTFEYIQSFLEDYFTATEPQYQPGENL
T17 sequence (P45983 whole entry): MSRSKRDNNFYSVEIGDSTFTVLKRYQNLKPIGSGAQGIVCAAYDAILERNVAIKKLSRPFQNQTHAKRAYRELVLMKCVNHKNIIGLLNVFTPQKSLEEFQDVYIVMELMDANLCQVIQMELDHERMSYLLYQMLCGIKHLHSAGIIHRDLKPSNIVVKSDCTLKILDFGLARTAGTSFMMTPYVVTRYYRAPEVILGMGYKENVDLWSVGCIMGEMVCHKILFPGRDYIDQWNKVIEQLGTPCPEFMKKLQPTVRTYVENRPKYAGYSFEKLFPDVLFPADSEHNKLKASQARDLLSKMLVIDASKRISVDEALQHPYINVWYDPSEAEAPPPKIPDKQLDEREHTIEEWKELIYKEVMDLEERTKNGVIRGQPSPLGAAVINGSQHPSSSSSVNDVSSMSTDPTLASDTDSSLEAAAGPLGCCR
T7 sequence (Q14289 whole entry): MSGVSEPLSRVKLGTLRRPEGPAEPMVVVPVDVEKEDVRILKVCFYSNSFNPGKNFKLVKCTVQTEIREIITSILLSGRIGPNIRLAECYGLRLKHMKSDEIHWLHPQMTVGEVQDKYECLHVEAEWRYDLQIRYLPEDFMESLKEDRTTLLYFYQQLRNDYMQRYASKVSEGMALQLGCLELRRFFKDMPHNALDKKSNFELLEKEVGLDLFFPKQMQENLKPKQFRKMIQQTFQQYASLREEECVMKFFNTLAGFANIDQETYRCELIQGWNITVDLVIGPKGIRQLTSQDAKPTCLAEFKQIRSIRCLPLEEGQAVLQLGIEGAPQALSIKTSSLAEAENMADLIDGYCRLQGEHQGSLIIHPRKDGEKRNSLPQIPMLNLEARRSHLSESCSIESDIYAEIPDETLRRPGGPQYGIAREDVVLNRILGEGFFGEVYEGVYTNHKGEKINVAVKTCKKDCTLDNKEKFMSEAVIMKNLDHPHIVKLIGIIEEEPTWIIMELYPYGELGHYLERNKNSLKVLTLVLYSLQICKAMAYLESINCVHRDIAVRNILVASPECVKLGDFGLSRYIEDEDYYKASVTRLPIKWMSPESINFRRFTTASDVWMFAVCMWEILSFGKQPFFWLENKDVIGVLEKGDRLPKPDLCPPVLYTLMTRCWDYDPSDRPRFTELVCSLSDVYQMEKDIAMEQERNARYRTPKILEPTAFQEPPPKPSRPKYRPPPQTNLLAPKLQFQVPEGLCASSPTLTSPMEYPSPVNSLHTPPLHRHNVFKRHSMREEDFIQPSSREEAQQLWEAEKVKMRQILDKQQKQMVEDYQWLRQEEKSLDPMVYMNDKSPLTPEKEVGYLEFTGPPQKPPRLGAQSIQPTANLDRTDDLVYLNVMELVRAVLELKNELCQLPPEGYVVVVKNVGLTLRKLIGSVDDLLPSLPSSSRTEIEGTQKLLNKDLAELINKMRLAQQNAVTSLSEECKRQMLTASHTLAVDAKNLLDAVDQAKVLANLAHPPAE
T2 sequence (P78356 whole entry): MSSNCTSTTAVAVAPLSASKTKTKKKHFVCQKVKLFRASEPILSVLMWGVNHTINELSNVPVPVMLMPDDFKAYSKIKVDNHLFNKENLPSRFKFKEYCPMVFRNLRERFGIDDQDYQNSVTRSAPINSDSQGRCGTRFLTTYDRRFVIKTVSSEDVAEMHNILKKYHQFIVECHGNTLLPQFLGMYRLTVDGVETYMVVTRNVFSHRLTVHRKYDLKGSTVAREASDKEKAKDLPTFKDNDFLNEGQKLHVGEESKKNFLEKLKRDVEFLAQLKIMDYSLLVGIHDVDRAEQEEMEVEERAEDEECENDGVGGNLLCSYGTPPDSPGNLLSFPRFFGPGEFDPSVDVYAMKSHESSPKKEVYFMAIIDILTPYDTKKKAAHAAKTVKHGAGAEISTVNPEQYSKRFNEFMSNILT
T10 sequence (P29597 whole entry): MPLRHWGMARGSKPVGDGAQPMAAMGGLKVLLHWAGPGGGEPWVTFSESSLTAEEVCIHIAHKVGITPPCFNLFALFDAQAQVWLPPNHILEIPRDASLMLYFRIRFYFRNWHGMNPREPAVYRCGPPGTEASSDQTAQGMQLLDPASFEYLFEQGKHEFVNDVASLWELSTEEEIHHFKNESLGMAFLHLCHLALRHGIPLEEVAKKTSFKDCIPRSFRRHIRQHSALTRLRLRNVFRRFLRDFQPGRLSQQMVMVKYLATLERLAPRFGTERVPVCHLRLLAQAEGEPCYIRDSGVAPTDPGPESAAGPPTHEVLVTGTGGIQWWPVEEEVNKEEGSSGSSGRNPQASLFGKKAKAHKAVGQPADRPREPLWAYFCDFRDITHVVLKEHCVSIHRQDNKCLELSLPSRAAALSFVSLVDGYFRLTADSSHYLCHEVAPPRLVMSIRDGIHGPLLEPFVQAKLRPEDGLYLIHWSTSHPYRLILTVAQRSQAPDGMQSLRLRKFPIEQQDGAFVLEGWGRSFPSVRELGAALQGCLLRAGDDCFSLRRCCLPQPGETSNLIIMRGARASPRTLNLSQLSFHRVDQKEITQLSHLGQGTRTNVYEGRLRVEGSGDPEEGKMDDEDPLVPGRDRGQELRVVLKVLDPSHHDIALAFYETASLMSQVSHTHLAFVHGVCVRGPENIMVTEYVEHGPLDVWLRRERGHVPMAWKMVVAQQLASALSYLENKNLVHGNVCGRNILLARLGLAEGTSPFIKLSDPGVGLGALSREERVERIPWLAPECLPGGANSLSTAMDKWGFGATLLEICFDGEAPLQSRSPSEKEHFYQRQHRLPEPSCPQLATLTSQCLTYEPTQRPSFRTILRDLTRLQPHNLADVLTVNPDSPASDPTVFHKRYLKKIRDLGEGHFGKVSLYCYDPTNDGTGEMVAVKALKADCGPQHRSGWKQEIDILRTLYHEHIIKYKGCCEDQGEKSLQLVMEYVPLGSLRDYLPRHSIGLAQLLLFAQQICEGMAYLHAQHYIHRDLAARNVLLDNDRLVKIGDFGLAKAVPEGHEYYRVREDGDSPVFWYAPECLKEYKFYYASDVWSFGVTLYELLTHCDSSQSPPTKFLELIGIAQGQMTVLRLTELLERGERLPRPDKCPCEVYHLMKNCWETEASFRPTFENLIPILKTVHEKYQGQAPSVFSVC
T20 sequence (Q96GD4 whole entry): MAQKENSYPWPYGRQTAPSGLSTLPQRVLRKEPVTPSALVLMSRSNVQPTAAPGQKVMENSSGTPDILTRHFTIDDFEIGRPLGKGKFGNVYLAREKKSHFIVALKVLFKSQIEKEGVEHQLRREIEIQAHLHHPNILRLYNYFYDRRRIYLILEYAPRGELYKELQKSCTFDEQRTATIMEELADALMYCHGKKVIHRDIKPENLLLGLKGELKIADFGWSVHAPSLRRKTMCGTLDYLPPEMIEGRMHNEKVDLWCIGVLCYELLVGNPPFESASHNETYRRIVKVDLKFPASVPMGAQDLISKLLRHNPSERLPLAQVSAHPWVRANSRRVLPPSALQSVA
T9 sequence (P15735 whole entry): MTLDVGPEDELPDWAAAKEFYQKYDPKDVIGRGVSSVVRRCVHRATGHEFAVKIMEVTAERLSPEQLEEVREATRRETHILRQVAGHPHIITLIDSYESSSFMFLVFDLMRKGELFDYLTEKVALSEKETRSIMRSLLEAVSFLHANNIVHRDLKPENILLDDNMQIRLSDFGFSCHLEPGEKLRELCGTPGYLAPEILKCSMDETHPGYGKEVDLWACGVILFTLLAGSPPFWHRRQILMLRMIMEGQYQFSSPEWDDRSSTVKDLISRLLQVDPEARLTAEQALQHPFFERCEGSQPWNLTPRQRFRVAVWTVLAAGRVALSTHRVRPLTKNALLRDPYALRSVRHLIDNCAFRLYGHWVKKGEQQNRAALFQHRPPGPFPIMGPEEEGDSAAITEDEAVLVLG
T6 sequence (O14965 whole entry): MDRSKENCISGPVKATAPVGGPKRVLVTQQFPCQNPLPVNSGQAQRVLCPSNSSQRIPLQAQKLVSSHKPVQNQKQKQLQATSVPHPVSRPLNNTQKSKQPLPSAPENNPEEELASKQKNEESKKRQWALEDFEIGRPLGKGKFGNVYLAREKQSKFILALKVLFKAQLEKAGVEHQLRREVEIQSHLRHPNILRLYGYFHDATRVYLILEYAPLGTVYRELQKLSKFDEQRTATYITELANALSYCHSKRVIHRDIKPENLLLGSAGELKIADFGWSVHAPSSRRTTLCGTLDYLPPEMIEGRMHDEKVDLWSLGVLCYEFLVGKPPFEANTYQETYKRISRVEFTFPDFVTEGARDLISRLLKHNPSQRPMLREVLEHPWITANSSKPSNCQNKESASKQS

For `CS(=O)(=O)Nc1ccccc1Nc1nc(Nc2cccc(OCCN)c2)ncc1F` [CZC25342, N-(2-(2-(3-(2-aminoethoxy)phenylamino)-5-fluoropyrimidin-4-ylamino)phenyl)methanesulfonamide], the “Competition % GSK3B” value [1] was 92.5%, the “Competition % PIP5K2B” value [2] was 97.2% and the “Competition % RSK2” value [3] was 95.6%. For the same compound, the “Competition % GSK3A” value [4] was 94.6%, the “Competition % PLK1” value [5] was 94.6% and the “Competition % AurA” value [6] was 93.6%. The “Competition % PYK2” value [7] was 96.3%, the “Competition % DNAPK” value [8] was 89.2% and the “Competition % PHKg2” value [9] was 93.4%. For the same compound, the “Competition % TYK2” value [10] was 96.6%, the “Competition % NEK9” value [11] was 83% and the “Competition % FYN” value [12] was 93.2%. For the same compound, the “Competition % CaMKK2” value [13] was 96.3%, the “Competition % TNK1” value [14] was 94.1% and the “Competition % AAK1” value [15] was 95.6%. For the same compound, the “Competition % LYN” value [16] was 83.1%, the “Competition % JNK1” value [17] was 84.3% and the “Competition % CDK9” value [18] was 97.6%. The “Competition % TIE2” value [19] was 91.4%, the “Competition % AurB” value [20] was 93.1% and the “Competition % ULK3” value [21] was 94.8%. For the same compound, the “Competition % PKCa” value [22] was 96.4%, the “Competition % NEK3” value [23] was 94.8% and the “Competition % YES” value [24] was 91.7%.
